The text below walks through data of article PMC6451745, “Development and dosimetry of ^203Pb/^212Pb-labelled PSMA ligands: bringing “the lead” into PSMA-targeted alpha therapy?” (European Journal of Nuclear Medicine and Molecular Imaging, 2019).

Structures are written as SMILES.

One data set relates to C4-2 cells. In words: Determination of specific internalization ratio. The data set is classed as cell-based. The protocol: In vitro and in vivo experiments were performed using the PSMA-positive C4-2 cell line, a subline of the LNCaP (lymph node carcinoma of the prostate) cell line (CRL-3314; American Type Culture Collection). C4-2 cells were cultivated in RPMI-1640 (PAN Biotech) supplemented with 10% fetal calf serum and stable glutamine (PAN Biotech). Cells were grown at 37 °C and incubated in humidified air equilibrated with 5% CO2.
For determination of the specific internalization ratio, 24-well plates were incubated for 20 min with 0.1% poly-L-lysine in PBS at room temperature and washed once with PBS. In the next step, 1 ml RPMI containing 1 × 10^5 C4-2 cells was added to each well and incubated overnight. The conditions during the experiment for each compound were: incubation at 37 °C or 4 °C with or without receptor blocking via 2-(phosphonomethyl)pentanedioic acid (2-PMPA; Axxora) at a final concentration of 500 μM. The cells were then incubated with 250 μl of a 30 nM solution of ^203Pb-labelled compound. The plates were incubated either for 45 min in a water bath at 37 °C or on ice at 4 °C. The cells were then washed three times with 1 ml ice-cold PBS and incubated with 0.5 ml glycine (50 mM in HCl, pH 2.8) for 5 min. After an additional washing step with 1 ml ice-cold PBS, the cells were lysed with 0.5 ml 0.3 M NaOH and collected, and the radioactivity was measured with a gamma counter for 1 min. The specific cellular uptake was determined as the percentage of initially added radioactivity bound per 10^6 cells (%IA/10^6 cells) by subtraction of the respective uptake under blocking conditions. All experiments were performed in triplicate.

The test system of data set [1] is patients with castration-resistant metastasized prostate cancer. In words: Dosimetry extrapolated from ^203Pb-CA012 to ^212Pb-CA012.
Procedure: Images were loaded into the QDOSE dosimetry software suite (ABX-CRO, Dresden) and coregistered. […] These ROIs were used to determine time–activity curves (TAC) for each organ, tumours and the total body. The first time-point (before voiding) of the uncorrected geometric mean images was used to calibrate the ROI counts in relation to the injected activity. The red marrow TAC was calculated from venous blood (six samples per patient) using established model assumptions [10, 11].
Biexponential curve fitting was applied to all organ TACs (with the exception of a few tumours and glands which had to be fitted monoexponentially). The accumulated activity was integrated assuming a linear increase from time 0 to the first measured time-point, numerically from the first to the last measured time-point using trapezoidal approximations and from the last measured time-point to infinity using the fit function. The activity in the remainder of the body was calculated by subtracting the activity of all source organs from that of the total body.
The residence times in the kidneys, liver, spleen, urinary bladder contents, red marrow and remainder of the body were exported for dose calculations in OLINDA 1.1, using the organ masses of the adult phantom [12].
OLINDA calculations were performed for all nuclides individually. […] Tumour and salivary gland volumes were measured individually based on CT segmentation and their absorbed doses were approximated using a power function interpolating the spherical model estimates [15].
Where [2] appears, read: projected from therapeutic activity of 100 MBq.
Setting [3] is: therapeutic ^212Pb incl. daughter nuclides, extrapolated from ^203Pb, RBE 5 for alpha, OLINDA male adult phantom.

For `NC(=O)CN1CCN(CC(N)=O)CCN(CC(N)=O)C(Cc2ccc(NC(=S)NCC3CCC(C(=O)NC(Cc4ccc5ccccc5c4)C(=O)NCCCC[C@H](NC(=O)N[C@@H](CCC(=O)O)C(=O)O)C(=O)O)CC3)cc2)CN(CC(N)=O)CC1.[203Pb+2]` (some centres unmarked) [^203Pb-CA009], the specific ligand-induced internalization entry in the data set with C4-2 cells is on record as “approximately 27 %ID/10^6 cells”. The “Specific lysate (specific internalization)” value in the data set with C4-2 cells (^203Pb-labelled compound 30 nM, 45 min, 2-PMPA blocking subtracted, mean ± SD n = 3) worked out at 27.4 ± 2.4 %IA/10^6 cells.
For the compound `NC(=O)CN1CCN(CC(N)=O)CCN(CC(=O)NC[C@H]2CC[C@H](C(=O)N[C@@H](Cc3ccc4ccccc4c3)C(=O)NCCCC[C@H](NC(=O)N[C@@H](CCC(=O)O)C(=O)O)C(=O)O)CC2)CCN(CC(N)=O)CC1.[212Pb+2]` [^212Pb-CA012], in data set [1] (preliminary approximation), the “cumulative dose limited by the kidneys (dose-limiting organ)” value was 400–600 MBq. In data set [1] (setting [2]), the “Equivalent dose, Liver” value is 0.7 SvRBE5; the “Equivalent dose, other organs” value is on record as 0.2 SvRBE5; the “Tissue equivalent dose, Kidneys” value was 4.9 SvRBE5. Moreover, the “Tissue equivalent dose, Red marrow” value in data set [1] (projected from therapeutic activity of 100 MBq, instant decay of daughter nuclides assumed) is given as 0.6 SvRBE5. Besides, in data set [1] (setting [3]), the Effective dose is on record as 415.1 mSv RBE5/100 Mbq; the Effective dose equivalent is reported as 748.9 mSv RBE5/100 Mbq; the “Equivalent dose, Adrenals” value is 193.1 mSv RBE5/100 Mbq; the “Equivalent dose, Brain” value is 190.0 mSv RBE5/100 Mbq. Also, in data set [1] (setting [3]), the “Equivalent dose, Breasts” value is given as 190.0 mSv RBE5/100 Mbq; the “Equivalent dose, Gallbladder” value was 192.9 mSv RBE5/100 Mbq; the “Equivalent dose, Heart” value is 191.3 mSv RBE5/100 Mbq; the “Equivalent dose, Kidneys” value is recorded as 4906.6 mSv RBE5/100 Mbq. Also, in data set [1] (setting [3]), the “Equivalent dose, Liver” value is 703.3 mSv RBE5/100 Mbq; the “Equivalent dose, Lower large intestine” value is 191.3 mSv RBE5/100 Mbq; the “Equivalent dose, Lungs” value is 190.9 mSv RBE5/100 Mbq; the “Equivalent dose, Muscle” value is given as 190.7 mSv RBE5/100 Mbq. Also, in data set [1] (setting [3]), the “Equivalent dose, Osteogenic cells” value is 3796.4 mSv RBE5/100 Mbq; the “Equivalent dose, Pancreas” value is 192.9 mSv RBE5/100 Mbq; the “Equivalent dose, Red marrow” value is 615.1 mSv RBE5/100 Mbq; the “Equivalent dose, Skin” value was 189.8 mSv RBE5/100 Mbq. Also, in data set [1] (setting [3]), the “Equivalent dose, Small intestine” value is on record as 191.8 mSv RBE5/100 Mbq; the “Equivalent dose, Spleen” value is 1606.7 mSv RBE5/100 Mbq; the “Equivalent dose, Stomach” value is on record as 191.8 mSv RBE5/100 Mbq; the “Equivalent dose, Testes” value is reported as 190.4 mSv RBE5/100 Mbq. In data set [1] (setting [3]), the “Equivalent dose, Thymus” value is 190.7 mSv RBE5/100 Mbq; the “Equivalent dose, Thyroid” value is reported as 190.5 mSv RBE5/100 Mbq; the “Equivalent dose, Total body” value is listed as 237.8 mSv RBE5/100 Mbq; the “Equivalent dose, Upper large intestine” value was 191.8 mSv RBE5/100 Mbq. Further, in data set [1] (setting [3]), the “Equivalent dose, Urinary bladder” value was 200.2 mSv RBE5/100 Mbq.
